Laboratory results as given in patent publication US20260001928A1 (CORTERIA PHARMACEUTICALS, priority 2022, published 2026).
*1 amine or outer side, *2 acyl side, *3 side chain or, on linkers, in order; H or OH if unused. Where a SMILES comes first, the peptide text is derived from it. Where no end group is shown, it is not given here. Side-chain parts run from the residue outwards. [ ]: non-standard residue; d: D form. The star is where a group is joined. C20 diacid = O=C(O)CCCCCCCCCCCCCCCCCCC(=O)*; C18 diacid = O=C(O)CCCCCCCCCCCCCCCCC(=O)*; C16 diacid = O=C(O)CCCCCCCCCCCCCCC(=O)*; γGlu = O=C(O)[C@H](CCC(=O)[*:2])N[*:1]; C14 diacid = O=C(O)CCCCCCCCCCCCC(=O)*; NMeI = CC[C@H](C)[C@H](NC)C(=O)O; Decanoyl = CCCCCCCCCC(=O)*; Aib = CC(C)(N)C(=O)O

B1: peptide of SEQ ID NO: 40 (peptide)
peptide: Ac-IVLSLD[dV]PIKLK([γGlu-C16 diacid])KILLEQEKQKKQREQAETN[Aib]QILAQV-NH2
SMILES: CC[C@H](C)[C@H](NC(C)=O)C(=O)N[C@H](C(=O)N[C@@H](CC(C)C)C(=O)N[C@@H](CO)C(=O)N[C@@H](CC(C)C)C(=O)N[C@@H](CC(=O)O)C(=O)N[C@@H](C(=O)N1CCC[C@H]1C(=O)N[C@H](C(=O)N[C@@H](CCCCN)C(=O)N[C@@H](CC(C)C)C(=O)N[C@@H](CCCCNC(=O)CC[C@H](NC(=O)CCCCCCCCCCCCCCC(=O)O)C(=O)O)C(=O)N[C@@H](CCCCN)C(=O)N[C@H](C(=O)N[C@@H](CC(C)C)C(=O)N[C@@H](CC(C)C)C(=O)N[C@@H](CCC(=O)O)C(=O)N[C@@H](CCC(N)=O)C(=O)N[C@@H](CCC(=O)O)C(=O)N[C@@H](CCCCN)C(=O)N[C@@H](CCC(N)=O)C(=O)N[C@@H](CCCCN)C(=O)N[C@@H](CCCCN)C(=O)N[C@@H](CCC(N)=O)C(=O)N[C@@H](CCCNC(=N)N)C(=O)N[C@@H](CCC(=O)O)C(=O)N[C@@H](CCC(N)=O)C(=O)N[C@@H](C)C(=O)N[C@@H](CCC(=O)O)C(=O)N[C@H](C(=O)N[C@@H](CC(N)=O)C(=O)NC(C)(C)C(=O)N[C@@H](CCC(N)=O)C(=O)N[C@H](C(=O)N[C@@H](CC(C)C)C(=O)N[C@@H](C)C(=O)N[C@@H](CCC(N)=O)C(=O)N[C@H](C(N)=O)C(C)C)[C@@H](C)CC)[C@@H](C)O)[C@@H](C)CC)[C@@H](C)CC)C(C)C)C(C)C
B2: peptide of SEQ ID NO: 144 (peptide)
peptide: [NMeI]VLSLD[dV]PIKLK([γGlu-C18 diacid])KILLEQEKQKAQREQAETN[Aib]QILAQV-NH2
modifications: N-terminus assumed
SMILES: CC[C@H](C)[C@H](NC)C(=O)N[C@H](C(=O)N[C@@H](CC(C)C)C(=O)N[C@@H](CO)C(=O)N[C@@H](CC(C)C)C(=O)N[C@@H](CC(=O)O)C(=O)N[C@@H](C(=O)N1CCC[C@H]1C(=O)N[C@H](C(=O)N[C@@H](CCCCN)C(=O)N[C@@H](CC(C)C)C(=O)N[C@@H](CCCCNC(=O)CC[C@H](NC(=O)CCCCCCCCCCCCCCCCC(=O)O)C(=O)O)C(=O)N[C@@H](CCCCN)C(=O)N[C@H](C(=O)N[C@@H](CC(C)C)C(=O)N[C@@H](CC(C)C)C(=O)N[C@@H](CCC(=O)O)C(=O)N[C@@H](CCC(N)=O)C(=O)N[C@@H](CCC(=O)O)C(=O)N[C@@H](CCCCN)C(=O)N[C@@H](CCC(N)=O)C(=O)N[C@@H](CCCCN)C(=O)N[C@@H](C)C(=O)N[C@@H](CCC(N)=O)C(=O)N[C@@H](CCCNC(=N)N)C(=O)N[C@@H](CCC(=O)O)C(=O)N[C@@H](CCC(N)=O)C(=O)N[C@@H](C)C(=O)N[C@@H](CCC(=O)O)C(=O)N[C@H](C(=O)N[C@@H](CC(N)=O)C(=O)NC(C)(C)C(=O)N[C@@H](CCC(N)=O)C(=O)N[C@H](C(=O)N[C@@H](CC(C)C)C(=O)N[C@@H](C)C(=O)N[C@@H](CCC(N)=O)C(=O)N[C@H](C(N)=O)C(C)C)[C@@H](C)CC)[C@@H](C)O)[C@@H](C)CC)[C@@H](C)CC)C(C)C)C(C)C

Each molecule was assayed against Rat CRF2 a (corticotropin-releasing factor receptor 2), on the A7R5 rat aortic smooth muscle cell line (rat, UniProt P47866 20-411) (assay: cell-based or functional assay).
Sequence of Rat CRF2 a (corticotropin-releasing factor receptor 2), on the A7R5 rat aortic smooth muscle cell line (P47866 20-411): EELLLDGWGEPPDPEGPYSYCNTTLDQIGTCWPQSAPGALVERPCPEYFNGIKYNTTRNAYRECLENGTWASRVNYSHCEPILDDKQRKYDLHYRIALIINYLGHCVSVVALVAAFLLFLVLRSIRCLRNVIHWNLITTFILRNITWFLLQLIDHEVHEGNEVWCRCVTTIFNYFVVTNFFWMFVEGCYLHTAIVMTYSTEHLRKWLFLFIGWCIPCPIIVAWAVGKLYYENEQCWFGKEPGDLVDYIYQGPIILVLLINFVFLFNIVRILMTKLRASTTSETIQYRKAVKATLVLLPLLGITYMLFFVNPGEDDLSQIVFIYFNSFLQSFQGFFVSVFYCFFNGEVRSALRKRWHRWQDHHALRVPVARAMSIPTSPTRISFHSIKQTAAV

| Molecule | EC50 [nM] 0% HSA (cAMP, A7R5 rat aortic smooth muscle cells) |
| --- | --- |
| Ac-IVLSLD[dV]PIKLK([γGlu-C14 diacid])KILLEQEKQKKQREQAETNEQILAQV-NH2 [comparative peptide 11 (SEQ ID NO: 85)] | 1.01 nM |
| B1 | 0.59 nM |
| B2 | 0.06 nM |

The molecules below were run on human LAD2 cells (assay: not given).
Assay type: cell-based
Summary of the method: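 Mast cell degranulation: cells exposed to peptides for 30 min at final concentrations from 50, 100 or 300 down to 0.1 or 0.001 μM, with 0.5% DMSO where used, in biological duplicates. β-hexosaminidase release was read with a fluorogenic 4-methylumbelliferyl substrate as supernatant/(supernatant + Triton-lysed pellet) × 100. EC50 came from a 4-parameter sigmoidal fit.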

| Molecule | EC50 |
| --- | --- |
| CC[C@H](C)[C@H](NC(C)=O)C(=O)N[C@H](C(=O)N[C@@H](CC(C)C)C(=O)N[C@@H](CO)C(=O)N[C@@H](CC(C)C)C(=O)N[C@@H](CC(=O)O)C(=O)N[C@@H](C(=O)N1CCC[C@H]1C(=O)N[C@H](C(=O)N[C@@H](CCCCN)C(=O)N[C@@H](CC(C)C)C(=O)N[C@@H](CCCCNC(=O)CC[C@H](NC(=O)CC[C@H](NC(=O)CCCCCCCCCCCCCCCCCCC(=O)O)C(=O)O)C(=O)O)C(=O)N[C@@H](CCCCN)C(=O)N[C@H](C(=O)N[C@@H](CC(C)C)C(=O)N[C@@H](CC(C)C)C(=O)N[C@@H](CCC(=O)O)C(=O)N[C@@H](CCC(N)=O)C(=O)N[C@@H](CCC(=O)O)C(=O)N[C@@H](CCCCN)C(=O)N[C@@H](CCC(N)=O)C(=O)N[C@@H](CCCCN)C(=O)N[C@@H](CCCCN)C(=O)N[C@@H](CCC(N)=O)C(=O)N[C@@H](CCCNC(=N)N)C(=O)N[C@@H](CCC(=O)O)C(=O)N[C@@H](CCC(N)=O)C(=O)N[C@@H](C)C(=O)N[C@@H](CCC(=O)O)C(=O)N[C@H](C(=O)N[C@@H](CC(N)=O)C(=O)NC(C)(C)C(=O)N[C@@H](CCC(N)=O)C(=O)N[C@H](C(=O)N[C@@H](CC(C)C)C(=O)N[C@@H](C)C(=O)N[C@@H](CCC(N)=O)C(=O)N[C@H](C(N)=O)C(C)C)[C@@H](C)CC)[C@@H](C)O)[C@@H](C)CC)[C@@H](C)CC)C(C)C)C(C)C [Cmpd 243] (Ac-IVLSLD[dV]PIKLK([γGlu-γGlu-C20 diacid])KILLEQEKQKKQREQAETN[Aib]QILAQV-NH2) | > 300 µM |
| CCCCCCCCCC(=O)N[C@H](C(=O)N[C@@H](CC(C)C)C(=O)N[C@@H](CO)C(=O)N[C@@H](CC(C)C)C(=O)N[C@@H](CC(=O)O)C(=O)N[C@@H](C(=O)N1CCC[C@H]1C(=O)N[C@H](C(=O)N[C@@H](CCCCN)C(=O)N[C@@H](CC(C)C)C(=O)N[C@@H](CCCCNC(=O)CC[C@H](NC(=O)CCCCCCCCCCCCCCCCCCC(=O)O)C(=O)O)C(=O)N[C@@H](CCCCN)C(=O)N[C@H](C(=O)N[C@@H](CC(C)C)C(=O)N[C@@H](CC(C)C)C(=O)N[C@@H](CCC(=O)O)C(=O)N[C@@H](CCC(N)=O)C(=O)N[C@@H](CCC(=O)O)C(=O)N[C@@H](CCCCN)C(=O)N[C@@H](CCC(N)=O)C(=O)N[C@@H](CCCCN)C(=O)N[C@@H](CCCCN)C(=O)N[C@@H](CCC(N)=O)C(=O)N[C@@H](CCCNC(=N)N)C(=O)N[C@@H](CCC(=O)O)C(=O)N[C@@H](CCC(N)=O)C(=O)N[C@@H](C)C(=O)N[C@@H](CCC(=O)O)C(=O)N[C@H](C(=O)N[C@@H](CC(N)=O)C(=O)NC(C)(C)C(=O)N[C@@H](CCC(N)=O)C(=O)N[C@H](C(=O)N[C@@H](CC(C)C)C(=O)N[C@@H](C)C(=O)N[C@@H](CCC(N)=O)C(=O)N[C@H](C(N)=O)C(C)C)[C@@H](C)CC)[C@@H](C)O)[C@@H](C)CC)[C@@H](C)CC)C(C)C)C(C)C [Cmpd 223] (Decanoyl-VLSLD[dV]PIKLK([γGlu-C20 diacid])KILLEQEKQKKQREQAETN[Aib]QILAQV-NH2) | > 300 µM |
| CC[C@H](C)[C@H](NC(C)=O)C(=O)N[C@H](C(=O)N[C@@H](CC(C)C)C(=O)N[C@@H](CO)C(=O)N[C@@H](CC(C)C)C(=O)N[C@@H](CC(=O)O)C(=O)N[C@@H](C(=O)N1CCC[C@H]1C(=O)N[C@H](C(=O)N[C@@H](CCCCN)C(=O)N[C@@H](CC(C)C)C(=O)N[C@@H](CCCCNC(=O)CC[C@H](NC(=O)CCCCCCCCCCCCCCCCCCC(=O)O)C(=O)O)C(=O)N[C@@H](CCCCN)C(=O)N[C@H](C(=O)N[C@@H](CC(C)C)C(=O)N[C@@H](CC(C)C)C(=O)N[C@@H](CCC(=O)O)C(=O)N[C@@H](CCC(N)=O)C(=O)N[C@@H](CCC(=O)O)C(=O)N[C@@H](CCCCN)C(=O)N[C@@H](CCC(N)=O)C(=O)N[C@@H](CCCCN)C(=O)N[C@@H](C)C(=O)N[C@@H](CCC(N)=O)C(=O)N[C@@H](CCCNC(=N)N)C(=O)N[C@@H](CCC(=O)O)C(=O)N[C@@H](CCC(N)=O)C(=O)N[C@@H](C)C(=O)N[C@@H](CCC(=O)O)C(=O)N[C@H](C(=O)N[C@@H](CC(N)=O)C(=O)NC(C)(C)C(=O)N[C@@H](CCC(N)=O)C(=O)N[C@H](C(=O)N[C@@H](CC(C)C)C(=O)N[C@@H](C)C(=O)N[C@@H](CCC(N)=O)C(=O)N[C@H](C(N)=O)C(C)C)[C@@H](C)CC)[C@@H](C)O)[C@@H](C)CC)[C@@H](C)CC)C(C)C)C(C)C [Cmpd 212] (Ac-IVLSLD[dV]PIKLK([γGlu-C20 diacid])KILLEQEKQKAQREQAETN[Aib]QILAQV-NH2) | > 300 µM |
| CC[C@H](C)[C@H](NC(C)=O)C(=O)N[C@H](C(=O)N[C@@H](CC(C)C)C(=O)N[C@@H](CO)C(=O)N[C@@H](CC(C)C)C(=O)N[C@@H](CC(=O)O)C(=O)N[C@@H](C(=O)N1CCC[C@H]1C(=O)N[C@H](C(=O)N[C@@H](CCCCN)C(=O)N[C@@H](CC(C)C)C(=O)N[C@@H](CCCCNC(=O)CC[C@H](NC(=O)CCCCCCCCCCCCCCC(=O)O)C(=O)O)C(=O)N[C@@H](CCCCN)C(=O)N[C@H](C(=O)N[C@@H](CC(C)C)C(=O)N[C@@H](CC(C)C)C(=O)N[C@@H](CCC(=O)O)C(=O)N[C@@H](CCC(N)=O)C(=O)N[C@@H](CCC(=O)O)C(=O)N[C@@H](CCCCN)C(=O)N[C@@H](CCC(N)=O)C(=O)N[C@@H](CCCCN)C(=O)N[C@@H](CCCCN)C(=O)N[C@@H](CCC(N)=O)C(=O)N[C@@H](CCCNC(=N)N)C(=O)N[C@@H](CCC(=O)O)C(=O)N[C@@H](CCC(N)=O)C(=O)N[C@@H](C)C(=O)N[C@@H](CCC(=O)O)C(=O)N[C@H](C(=O)N[C@@H](CC(N)=O)C(=O)N[C@@H](CCC(=O)O)C(=O)N[C@@H](CCC(N)=O)C(=O)N[C@H](C(=O)N[C@@H](CC(C)C)C(=O)N[C@@H](C)C(=O)N[C@@H](CCC(N)=O)C(=O)N[C@H](C(N)=O)C(C)C)[C@@H](C)CC)[C@@H](C)O)[C@@H](C)CC)[C@@H](C)CC)C(C)C)C(C)C [56 (comp)] (Ac-IVLSLD[dV]PIKLK([γGlu-C16 diacid])KILLEQEKQKKQREQAETNEQILAQV-NH2) | 38.5 µM |
